Reference: PubChem BioAssay (NCI)
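Following 48 hours of exposure in 96-well plates, responses at five concentrations were used to interpolate endpoints linearly. GI50: concentration for 50% inhibition of growth. TGI is the concentration that stops growth completely.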

Legend:
Assay in all cases: NCI-60 cell line screen, 48 h; in the data active = GI50 below about 0.43 µM; inactive = the rest
SK-MEL-2 melanoma = test system: SK-MEL-2 melanoma
KM12 colon = test system: KM12 colon
LOX IMVI melanoma = test system: LOX IMVI melanoma
RXF 393 renal = test system: RXF 393 renal
MOLT-4 leukemia = test system: MOLT-4 leukemia
SN12C renal = test system: SN12C renal
BT-549 breast = test system: BT-549 breast
CAKI-1 renal = test system: CAKI-1 renal
SW-620 colon = test system: SW-620 colon
OVCAR-4 ovarian = test system: OVCAR-4 ovarian
DU-145 prostate = test system: DU-145 prostate
A498 renal = test system: A498 renal
NCI/ADR-RES ovarian = test system: NCI/ADR-RES ovarian
NCI-H522 lung = test system: NCI-H522 lung
UACC-62 melanoma = test system: UACC-62 melanoma
UACC-257 melanoma = test system: UACC-257 melanoma
HCT-116 colon = test system: HCT-116 colon
SK-OV-3 ovarian = test system: SK-OV-3 ovarian
OVCAR-5 ovarian = test system: OVCAR-5 ovarian
786-0 renal = test system: 786-0 renal
MALME-3M melanoma = test system: MALME-3M melanoma
MCF7 breast = test system: MCF7 breast
OVCAR-3 ovarian = test system: OVCAR-3 ovarian
HL-60(TB) leukemia = test system: HL-60(TB) leukemia
K-562 leukemia = test system: K-562 leukemia
HCT-15 colon = test system: HCT-15 colon
M14 melanoma = test system: M14 melanoma
ACHN renal = test system: ACHN renal
PC-3 prostate = test system: PC-3 prostate
T-47D breast = test system: T-47D breast
NCI-H460 lung = test system: NCI-H460 lung
MDA-MB-435 = test system: MDA-MB-435
SF-539 CNS = test system: SF-539 CNS
NCI-H226 lung = test system: NCI-H226 lung
SK-MEL-5 melanoma = test system: SK-MEL-5 melanoma
RPMI-8226 leukemia = test system: RPMI-8226 leukemia
HOP-62 NSCLC = test system: HOP-62 NSCLC
SF-295 CNS = test system: SF-295 CNS
OVCAR-8 ovarian = test system: OVCAR-8 ovarian
UO-31 renal = test system: UO-31 renal
SNB-75 CNS = test system: SNB-75 CNS
COLO 205 colon = test system: COLO 205 colon
HCC-2998 colon = test system: HCC-2998 colon
A549 NSCLC = test system: A549 NSCLC
SNB-19 CNS = test system: SNB-19 CNS
HS 578T breast = test system: HS 578T breast
HT29 colon = test system: HT29 colon
SK-MEL-28 melanoma = test system: SK-MEL-28 melanoma
SF-268 CNS = test system: SF-268 CNS
SR leukemia = test system: SR leukemia
TK-10 renal = test system: TK-10 renal
EKVX NSCLC = test system: EKVX NSCLC
U251 CNS = test system: U251 CNS
IGROV1 ovarian = test system: IGROV1 ovarian
HOP-92 NSCLC = test system: HOP-92 NSCLC
MDA-MB-231 breast = test system: MDA-MB-231 breast
CCRF-CEM leukemia = test system: CCRF-CEM leukemia
NCI-H23 lung = test system: NCI-H23 lung

CCOC(=O)Cc1csc(NC(=O)C(OC(=O)c2ccc(Cl)cc2)c2ccccc2)n1 (centres undefined)
75.6 µM: TGI (MDA-MB-435)
46.5 µM: TGI (UACC-62 melanoma)
95.8 µM: TGI (RXF 393 renal)
69.2 µM: TGI (SK-MEL-28 melanoma)
36 µM: TGI (SK-MEL-5 melanoma)
46.6 µM: TGI (RPMI-8226 leukemia)
54.8 µM: TGI (SF-539 CNS)
inactive: GI50 (SK-MEL-2 melanoma) 23.8 µM | GI50 (KM12 colon) 38.9 µM | GI50 (LOX IMVI melanoma) 33.6 µM | GI50 (RXF 393 renal) 28.6 µM | GI50 (MOLT-4 leukemia) 26 µM | GI50 (SN12C renal) 37.8 µM | GI50 (BT-549 breast) 25.9 µM | GI50 (CAKI-1 renal) 61.9 µM | GI50 (SW-620 colon) 48.4 µM | GI50 (OVCAR-4 ovarian) 40.3 µM | GI50 (DU-145 prostate) 72.7 µM | GI50 (A498 renal) > 100 µM | GI50 (NCI/ADR-RES ovarian) 41.1 µM | GI50 (NCI-H522 lung) 46 µM | GI50 (UACC-62 melanoma) 20.3 µM | GI50 (UACC-257 melanoma) 41.3 µM | GI50 (HCT-116 colon) 29 µM | GI50 (SK-OV-3 ovarian) > 100 µM | GI50 (OVCAR-5 ovarian) 38.5 µM | GI50 (786-0 renal) 42.8 µM | GI50 (MALME-3M melanoma) 47.9 µM | GI50 (MCF7 breast) 34 µM | GI50 (OVCAR-3 ovarian) 17.8 µM | GI50 (HL-60(TB) leukemia) 9.28 µM | GI50 (K-562 leukemia) 27.1 µM | GI50 (HCT-15 colon) 51.6 µM | GI50 (M14 melanoma) 22.1 µM | GI50 (ACHN renal) 62.1 µM | GI50 (PC-3 prostate) 35.1 µM | GI50 (T-47D breast) 63.1 µM | GI50 (NCI-H460 lung) 36.1 µM | GI50 (MDA-MB-435) 28.1 µM | GI50 (SF-539 CNS) 25.3 µM | GI50 (NCI-H226 lung) 54.4 µM | GI50 (SK-MEL-5 melanoma) 18 µM | GI50 (RPMI-8226 leukemia) 17.1 µM | GI50 (HOP-62 NSCLC) 44.1 µM | GI50 (SF-295 CNS) 24.6 µM | GI50 (OVCAR-8 ovarian) 64.8 µM | GI50 (UO-31 renal) 47.1 µM | GI50 (SNB-75 CNS) 26.1 µM | GI50 (COLO 205 colon) 38.3 µM | GI50 (HCC-2998 colon) 50.9 µM | GI50 (A549 NSCLC) 47.1 µM | GI50 (SNB-19 CNS) 50.5 µM | GI50 (HS 578T breast) 54.8 µM | GI50 (HT29 colon) 27 µM | GI50 (SK-MEL-28 melanoma) 25.2 µM | GI50 (SF-268 CNS) 28.7 µM | GI50 (SR leukemia) 13.4 µM | GI50 (TK-10 renal) > 100 µM | GI50 (EKVX NSCLC) 59.6 µM | GI50 (U251 CNS) 45.3 µM | GI50 (IGROV1 ovarian) 47 µM | GI50 (HOP-92 NSCLC) 27.2 µM | GI50 (MDA-MB-231 breast) 31.7 µM
58.7 µM: TGI (SR leukemia)
41.9 µM: TGI (OVCAR-3 ovarian)
> 100 µM: TGI (KM12 colon) | TGI (LOX IMVI melanoma) | TGI (MOLT-4 leukemia) | TGI (SN12C renal) | TGI (CAKI-1 renal) | TGI (SW-620 colon) | TGI (OVCAR-4 ovarian) | TGI (DU-145 prostate) | TGI (A498 renal) | TGI (NCI/ADR-RES ovarian) | TGI (NCI-H522 lung) | TGI (UACC-257 melanoma) | TGI (HCT-116 colon) | TGI (SK-OV-3 ovarian) | TGI (OVCAR-5 ovarian) | TGI (786-0 renal) | TGI (MALME-3M melanoma) | TGI (MCF7 breast) | TGI (K-562 leukemia) | TGI (HCT-15 colon) | TGI (ACHN renal) | TGI (PC-3 prostate) | TGI (T-47D breast) | TGI (NCI-H460 lung) | TGI (NCI-H226 lung) | TGI (HOP-62 NSCLC) | TGI (OVCAR-8 ovarian) | TGI (UO-31 renal) | TGI (COLO 205 colon) | TGI (HCC-2998 colon) | TGI (A549 NSCLC) | TGI (SNB-19 CNS) | TGI (HS 578T breast) | TGI (SF-268 CNS) | TGI (TK-10 renal) | TGI (EKVX NSCLC) | TGI (U251 CNS) | TGI (IGROV1 ovarian) | TGI (HOP-92 NSCLC) | TGI (MDA-MB-231 breast)
50.7 µM: TGI (SK-MEL-2 melanoma)
56.8 µM: TGI (SF-295 CNS)
88 µM: TGI (HT29 colon)
68.9 µM: TGI (HL-60(TB) leukemia)
52 µM: TGI (M14 melanoma)
95.1 µM: TGI (SNB-75 CNS)
56.9 µM: TGI (BT-549 breast)

COc1cc2c3c(n(CCCN=[N+]=[N-])c(=O)c2cc1OC)-c1ccc([N+](=O)[O-])cc1C3=O
active: GI50 (IGROV1 ovarian) 0.215 µM
> 100 µM: TGI (SK-MEL-2 melanoma) | TGI (KM12 colon) | TGI (LOX IMVI melanoma) | TGI (RXF 393 renal) | TGI (MOLT-4 leukemia) | TGI (SN12C renal) | TGI (CAKI-1 renal) | TGI (SW-620 colon) | TGI (OVCAR-4 ovarian) | TGI (DU-145 prostate) | TGI (A498 renal) | TGI (NCI/ADR-RES ovarian) | TGI (NCI-H522 lung) | TGI (UACC-62 melanoma) | TGI (UACC-257 melanoma) | TGI (HCT-116 colon) | TGI (SK-OV-3 ovarian) | TGI (OVCAR-5 ovarian) | TGI (786-0 renal) | TGI (MALME-3M melanoma) | TGI (MCF7 breast) | TGI (OVCAR-3 ovarian) | TGI (HL-60(TB) leukemia) | TGI (K-562 leukemia) | TGI (HCT-15 colon) | TGI (M14 melanoma) | TGI (ACHN renal) | TGI (PC-3 prostate) | TGI (T-47D breast) | TGI (CCRF-CEM leukemia) | TGI (NCI-H460 lung) | TGI (MDA-MB-435) | TGI (SF-539 CNS) | TGI (SK-MEL-5 melanoma) | TGI (RPMI-8226 leukemia) | TGI (HOP-62 NSCLC) | TGI (SF-295 CNS) | TGI (OVCAR-8 ovarian) | TGI (UO-31 renal) | TGI (NCI-H23 lung) | TGI (COLO 205 colon) | TGI (A549 NSCLC) | TGI (SNB-19 CNS) | TGI (HS 578T breast) | TGI (HT29 colon) | TGI (SK-MEL-28 melanoma) | TGI (SF-268 CNS) | TGI (TK-10 renal) | TGI (EKVX NSCLC) | TGI (U251 CNS) | TGI (HOP-92 NSCLC) | TGI (MDA-MB-231 breast)
66.9 µM: TGI (SNB-75 CNS)
inactive: GI50 (SK-MEL-2 melanoma) 36.5 µM | GI50 (KM12 colon) > 100 µM | GI50 (LOX IMVI melanoma) 61 µM | GI50 (RXF 393 renal) > 100 µM | GI50 (MOLT-4 leukemia) 63.3 µM | GI50 (SN12C renal) > 100 µM | GI50 (BT-549 breast) 14.4 µM | GI50 (CAKI-1 renal) > 100 µM | GI50 (SW-620 colon) 55.3 µM | GI50 (OVCAR-4 ovarian) > 100 µM | GI50 (DU-145 prostate) 34.4 µM | GI50 (A498 renal) 96.7 µM | GI50 (NCI/ADR-RES ovarian) 80 µM | GI50 (NCI-H522 lung) 16.8 µM | GI50 (UACC-62 melanoma) 68.7 µM | GI50 (UACC-257 melanoma) > 100 µM | GI50 (HCT-116 colon) > 100 µM | GI50 (SK-OV-3 ovarian) > 100 µM | GI50 (OVCAR-5 ovarian) > 100 µM | GI50 (786-0 renal) 50.3 µM | GI50 (MALME-3M melanoma) > 100 µM | GI50 (MCF7 breast) 27.9 µM | GI50 (OVCAR-3 ovarian) > 100 µM | GI50 (HL-60(TB) leukemia) > 100 µM | GI50 (K-562 leukemia) > 100 µM | GI50 (HCT-15 colon) > 100 µM | GI50 (M14 melanoma) > 100 µM | GI50 (ACHN renal) > 100 µM | GI50 (PC-3 prostate) > 100 µM | GI50 (T-47D breast) 50.1 µM | GI50 (CCRF-CEM leukemia) 38.7 µM | GI50 (NCI-H460 lung) 49.5 µM | GI50 (MDA-MB-435) > 100 µM | GI50 (SF-539 CNS) 38.9 µM | GI50 (SK-MEL-5 melanoma) > 100 µM | GI50 (RPMI-8226 leukemia) 90.7 µM | GI50 (HOP-62 NSCLC) 89.7 µM | GI50 (SF-295 CNS) > 100 µM | GI50 (OVCAR-8 ovarian) > 100 µM | GI50 (UO-31 renal) 20 µM | GI50 (NCI-H23 lung) 91.1 µM | GI50 (SNB-75 CNS) 20.9 µM | GI50 (COLO 205 colon) > 100 µM | GI50 (A549 NSCLC) > 100 µM | GI50 (SNB-19 CNS) > 100 µM | GI50 (HS 578T breast) 48 µM | GI50 (HT29 colon) > 100 µM | GI50 (SK-MEL-28 melanoma) > 100 µM | GI50 (SF-268 CNS) 33.4 µM | GI50 (SR leukemia) 4.38 µM | GI50 (TK-10 renal) > 100 µM | GI50 (EKVX NSCLC) 40.1 µM | GI50 (U251 CNS) > 100 µM | GI50 (HOP-92 NSCLC) 29.8 µM | GI50 (MDA-MB-231 breast) 20.3 µM
22.9 µM: TGI (SR leukemia)
98.8 µM: TGI (BT-549 breast)
35 µM: TGI (IGROV1 ovarian)
